For this test, the target named is (recombinant) catalytic domain of human Bub1 (amino acids 704-1085) (Homo sapiens (Human), UniProt O43683). Description: Bub1 kinase assay (TR-FRET). The class given is biochemical. The note with it: ATP 10 μM final, peptide substrate 1 μM final, 60 min at 22° C., read-out: Biological Assay: Bub1 kinase assay median IC50. The method in brief: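 Compounds were serially diluted 1:3.4 from 2 mM DMSO stocks and incubated with the enzyme reaction for 60 min at 22° C. The reaction was stopped with EDTA, and biotinylated peptide phosphorylation was read by TR-FRET using Eu anti-mouse IgG, anti-phosphoserine antibody and streptavidin-XL665. IC50 was fitted by 4-parameter logistic to inhibition normalized to no-inhibitor and no-enzyme controls.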
Sequence of (recombinant) catalytic domain of human Bub1 (amino acids 704-1085) (O43683 704-1085): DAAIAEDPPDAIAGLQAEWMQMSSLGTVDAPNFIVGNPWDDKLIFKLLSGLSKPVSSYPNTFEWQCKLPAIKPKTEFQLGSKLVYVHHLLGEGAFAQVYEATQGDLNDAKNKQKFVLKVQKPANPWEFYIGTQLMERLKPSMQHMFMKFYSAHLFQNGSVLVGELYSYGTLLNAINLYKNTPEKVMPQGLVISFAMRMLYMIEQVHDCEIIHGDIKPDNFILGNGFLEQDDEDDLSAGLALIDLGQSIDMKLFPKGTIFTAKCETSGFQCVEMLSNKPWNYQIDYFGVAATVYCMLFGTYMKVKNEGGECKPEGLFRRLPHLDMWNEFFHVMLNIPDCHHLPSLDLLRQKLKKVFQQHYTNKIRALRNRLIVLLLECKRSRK
Background: Time-resolved FRET reads energy transfer from a long-lived donor to a nearby acceptor.

Molecules are shown by their SMILES.

Consider `O=C1CCCc2[nH]c(-c3ccnc(NCCC(F)(F)F)c3)c(Nc3ccccc3)c21` [Example 365, 3-(phenylamino)-2-{2-[(3,3,3-trifluoropropyl)amino]pyridin-4-yl}-1,5,6,7-tetrahydro-4H-indol-4-one], for which the concentration for half-maximal inhibition (IC50) (commonly the concentration at which inhibition is half-maximal) amounted to 604 nM.
Consider `O=C1CCCc2[nH]c(-c3ccnc(NCc4ccccc4)c3)c(Nc3ccccc3)c21` [Example 366, 2-[2-(benzylamino)pyridin-4-yl]-3-(phenylamino)-1,5,6,7-tetrahydro-4H-indol-4-one], for which the IC50 came to 1660 nM.
For the compound `O=C1CCCc2[nH]c(-c3ccnc(NCc4ccncc4)c3)c(Nc3ccccc3)c21` [Example 367, 3-(phenylamino)-2-{2-[(pyridin-4-ylmethyl)amino]pyridin-4-yl}-1,5,6,7-tetrahydro-4H-indol-4-one], the IC50 was determined as 291 nM.
The figure for `O=C1CCCc2[nH]c(-c3ccnc(NCC4CC4)c3)c(Nc3ccccc3)c21` [Example 368, 2-{2-[(cyclopropylmethyl)amino]pyridin-4-yl}-3-(phenylamino)-1,5,6,7-tetrahydro-4H-indol-4-one] is 622 nM.
Consider `O=C(O)CNc1cc(-c2[nH]c3c(c2Nc2ccccc2)C(=O)CCC3)ccn1` [Example 369, N-{4-[4-oxo-3-(phenylamino)-4,5,6,7-tetrahydro-1H-indol-2-yl]pyridin-2-yl}glycine], for which the IC50 is 362 nM.
`CC1(C)OC[C@H](CNc2cc(-c3[nH]c4c(c3Nc3ccccc3)C(=O)CCC4)ccn2)O1` [Example 370, 2-[2-({[(4S)-2,2-dimethyl-1,3-dioxolan-4-yl]methyl}amino)pyridin-4-yl]-3-(phenylamino)-1,5,6,7-tetrahydro-4H-indol-4-one]: the half-maximal inhibitory concentration (IC50) stood at 1300 nM.
The value for `O=C1CCCc2[nH]c(-c3ccnc(NC[C@H](O)CO)c3)c(Nc3ccccc3)c21` [Example 371, 2 2-(2-{[(2S)-2,3-dihydroxypropyl]amino}pyridin-4-yl)-3-(phenylamino)-1,5,6,7-tetrahydro-4H-indol-4-one] was 1010 nM.
The value for `O=C1CCCc2[nH]c(-c3ccnc(NCc4cccnc4)c3)c(Nc3ccccc3)c21` [Example 372, 3-(phenylamino)-2-{2-[(pyridin-3-ylmethyl)amino]pyridin-4-yl}-1,5,6,7-tetrahydro-4H-indol-4-one] was 9530 nM.
The value for `CC(C)(C)OC(=O)N1CC(CNc2cc(-c3[nH]c4c(c3Nc3ccccc3)C(=O)CCC4)ccn2)C1` [Example 373, tert-butyl 3-[({4-[4-oxo-3-(phenylamino)-4,5,6,7-tetrahydro-1H-indol-2-yl]pyridin-2-yl}amino)methyl]azetidine-1-carboxylate] was 694 nM.
For the compound `Cn1nnnc1Nc1cc(-c2[nH]c3c(c2Nc2ccccc2)C(=O)CCC3)ccn1` [Example 374, 2-{2-[(1-methyl-1H-tetrazol-5-yl)amino]pyridin-4-yl}-3-(phenylamino)-1,5,6,7-tetrahydro-4H-indol-4-one], the IC50 turned out to be 18.8 nM.
As to `O=C1CCCc2[nH]c(-c3ccnc(Nc4cccc(F)c4)c3)c(Nc3ccccc3)c21` [Example 375, 2-{2-[(3-fluorophenyl)amino]pyridin-4-yl}-3-(phenylamino)-1,5,6,7-tetrahydro-4H-indol-4-one], the IC50 turned out to be 330 nM.
The figure for `CC(C)Nc1cnccc1-c1[nH]c2c(c1Nc1ccccc1)C(=O)CCC2` [Example 376, 3-(phenylamino)-2-[3-(propan-2-ylamino)pyridin-4-yl]-1,5,6,7-tetrahydro-4H-indol-4-one] is 2510 nM.
The value for `CCNC(=O)Nc1cc(-c2[nH]c3c(c2Nc2ccccc2)C(=O)CCC3)ccn1` [Example 377, 1-ethyl-3-{4-[4-oxo-3-(phenylamino)-4,5,6,7-tetrahydro-1H-indol-2-yl]pyridin-2-yl}urea] was 30.1 nM; that for `CC(C)NC(=O)Nc1cc(-c2[nH]c3c(c2Nc2ccccc2)C(=O)CCC3)ccn1` [Example 378, 1-{4-[4-oxo-3-(phenylamino)-4,5,6,7-tetrahydro-1H-indol-2-yl]pyridin-2-yl}-3-propan-2-ylurea] was 64.5 nM; that for `O=C(Nc1cc(-c2[nH]c3c(c2Nc2ccccc2)C(=O)CCC3)ccn1)NC1CC1` [Example 379, 1-cyclopropyl-3-{4-[4-oxo-3-(phenylamino)-4,5,6,7-tetrahydro-1H-indol-2-yl]pyridin-2-yl}urea] was 36.6 nM.
The figure for `CC(C)(C)NC(=O)Nc1cc(-c2[nH]c3c(c2Nc2ccccc2)C(=O)CCC3)ccn1` [Example 380, 1-tert-butyl-3-{4-[4-oxo-3-(phenylamino)-4,5,6,7-tetrahydro-1H-indol-2-yl]pyridin-2-yl}urea] is 437 nM.
Regarding `CC(C)CNC(=O)Nc1cc(-c2[nH]c3c(c2Nc2ccccc2)C(=O)CCC3)ccn1` [Example 381, 1-(2-methylpropyl)-3-{4-[4-oxo-3-(phenylamino)-4,5,6,7-tetrahydro-1H-indol-2-yl]pyridin-2-yl}urea], the IC50 was 94.4 nM.
The figure for `O=C(NCC(F)(F)F)Nc1cc(-c2[nH]c3c(c2Nc2ccccc2)C(=O)CCC3)ccn1` [Example 382, 1-{4-[4-oxo-3-(phenylamino)-4,5,6,7-tetrahydro-1H-indol-2-yl]pyridin-2-yl}-3-(2,2,2-trifluoroethyl)urea] is 84 nM; for `COCCNC(=O)Nc1cc(-c2[nH]c3c(c2Nc2ccccc2)C(=O)CCC3)ccn1` [Example 383, 1-(2-methoxyethyl)-3-{4-[4-oxo-3-(phenylamino)-4,5,6,7-tetrahydro-1H-indol-2-yl]pyridin-2-yl}urea] it is 69.1 nM.
The figure for `O=C(NCc1ccco1)Nc1cc(-c2[nH]c3c(c2Nc2ccccc2)C(=O)CCC3)ccn1` [Example 384, 1-(furan-2-ylmethyl)-3-{4-[4-oxo-3-(phenylamino)-4,5,6,7-tetrahydro-1H-indol-2-yl]pyridin-2-yl}urea] is 113 nM.
The value for `O=C(Nc1ccncc1)Nc1cc(-c2[nH]c3c(c2Nc2ccccc2)C(=O)CCC3)ccn1` [Example 385, 1-{4-[4-oxo-3-(phenylamino)-4,5,6,7-tetrahydro-1H-indol-2-yl]pyridin-2-yl}-3-pyridin-4-ylurea] was 10.1 nM; that for `O=C(Nc1ccccn1)Nc1cc(-c2[nH]c3c(c2Nc2ccccc2)C(=O)CCC3)ccn1` [Example 386, 1-{4-[4-oxo-3-(phenylamino)-4,5,6,7-tetrahydro-1H-indol-2-yl]pyridin-2-yl}-3-pyridin-2-ylurea] was 20.3 nM.
As for `O=C(NCC(F)F)Nc1cc(-c2[nH]c3c(c2Nc2ccccc2)C(=O)CCC3)ccn1` [Example 387, 1-(2,2-difluoroethyl)-3-{4-[4-oxo-3-(phenylamino)-4,5,6,7-tetrahydro-1H-indol-2-yl]pyridin-2-yl}urea], the IC50 was found to be 63.5 nM.
The value for `O=C(NCCCl)Nc1cc(-c2[nH]c3c(c2Nc2ccccc2)C(=O)CCC3)ccn1` [Example 388, 1-(2-chloroethyl)-3-{4-[4-oxo-3-(phenylamino)-4,5,6,7-tetrahydro-1H-indol-2-yl]pyridin-2-yl}urea] was 43.4 nM.
As for `CSCCNC(=O)Nc1cc(-c2[nH]c3c(c2Nc2ccccc2)C(=O)CCC3)ccn1` [Example 389, 1-[2-(methylsulfanyl)ethyl]-3-{4-[4-oxo-3-(phenylamino)-4,5,6,7-tetrahydro-1H-indol-2-yl]pyridin-2-yl}urea], the IC50 is 38.9 nM.
As for `Cn1cc(NC(=O)Nc2cc(-c3[nH]c4c(c3Nc3ccccc3)C(=O)CCC4)ccn2)cn1` [Example 390, 1-(1-methyl-1H-pyrazol-4-yl)-3-{4-[4-oxo-3-(phenylamino)-4,5,6,7-tetrahydro-1H-indol-2-yl]pyridin-2-yl}urea], the half-inhibitory concentration (IC50) came to 3.96 nM.
The figure for `Cn1cc(NC(=O)Nc2cc(-c3[nH]c4c(c3Nc3ccccc3)C(=O)CC(C)(C)C4)ccn2)cn1` [Example 391, 1-{4-[6,6-dimethyl-4-oxo-3-(phenylamino)-4,5,6,7-tetrahydro-1H-indol-2-yl]pyridin-2-yl}-3-(1-methyl-1H-pyrazol-4-yl)urea] is 4.52 nM; for `CNC(=S)Nc1cc(-c2[nH]c3c(c2Nc2ccccc2)C(=O)CCC3)ccn1` [Example 392, 1-methyl-3-{4-[4-oxo-3-(phenylamino)-4,5,6,7-tetrahydro-1H-indol-2-yl]pyridin-2-yl}thiourea] it is 87.5 nM.
The value for `CCNC(=S)Nc1cc(-c2[nH]c3c(c2Nc2ccccc2)C(=O)CCC3)ccn1` [Example 393, 1-ethyl-3-{4-[4-oxo-3-(phenylamino)-4,5,6,7-tetrahydro-1H-indol-2-yl]pyridin-2-yl}thiourea] was 233 nM; that for `O=C1CCCc2[nH]c(-c3ccnc(NC(=S)NCC(F)(F)F)c3)c(Nc3ccccc3)c21` [Example 394, 1-{4-[4-oxo-3-(phenylamino)-4,5,6,7-tetrahydro-1H-indol-2-yl]pyridin-2-yl}-3-(2,2,2-trifluoroethyl)thiourea] was 1150 nM; that for `O=C1CCCc2[nH]c(-c3ccnc(NC(=S)NC4CC4)c3)c(Nc3ccccc3)c21` [Example 395, 1-cyclopropyl-3-{4-[4-oxo-3-(phenylamino)-4,5,6,7-tetrahydro-1H-indol-2-yl]pyridin-2-yl}thiourea] was 213 nM.
The value for `CC(C)(C)NC(=S)Nc1cc(-c2[nH]c3c(c2Nc2ccccc2)C(=O)CCC3)ccn1` [Example 396, 1-tert-butyl-3-{4-[4-oxo-3-(phenylamino)-4,5,6,7-tetrahydro-1H-indol-2-yl]pyridin-2-yl}thiourea] was 2460 nM; that for `O=C1CCCc2[nH]c(-c3ccnc(NC(=S)NC4CCCC4)c3)c(Nc3ccccc3)c21` [Example 397, 1-cyclopentyl-3-{4-[4-oxo-3-(phenylamino)-4,5,6,7-tetrahydro-1H-indol-2-yl]pyridin-2-yl}thiourea] was 1050 nM; that for `O=C1CCCc2[nH]c(-c3ccnc(NC(=S)NCC4CC4)c3)c(Nc3ccccc3)c21` [Example 398, 1-(cyclopropylmethyl)-3-{4-[4-oxo-3-(phenylamino)-4,5,6,7-tetrahydro-1H-indol-2-yl]pyridin-2-yl}thiourea] was 552 nM.
